Source: article PMC10620989, “Going beyond Binary: Rapid Identification of Protein–Protein Interaction Modulators Using a Multifragment Kinetic Target-Guided Synthesis Approach” (Journal of Medicinal Chemistry, 2023)
Several values for one entry are separate records, joined by “and”; a condition that tells them apart may be missing. Equal values may be shown once. Read-outs that look alike come from different tables or passages of the source.

Legend:
[1] = target: Bcl-XL (Homo sapiens, UniProt Q07817); assay: Multifragment KTGS incubation with Bcl-XL (9 TA x 9 SZ in one well), LC-MS/MS; details: 81 combinations in one well, 5 μM Bcl-XL, phosphate buffer pH 7.4, 8 h
[2] = target: GST-tagged mouse Mcl-1-(152–309) (Mus musculus, UniProt P97287); assay: Fluorescence polarization competitive binding assay, GST-Mcl-1 / FITC-Bim-BH3; design: selectivity index: reference not given here; details: for inhibition at 50 µM: compound at 50 µM
[3] = target: T1, GST-Bcl-XL (Homo sapiens, UniProt Q07817); assay: Fluorescence polarization assay, GST-Bcl-XL / fluorescein-labeled Bak BH3 peptide; assay type: binding; details: FP, GST-Bcl-XL and fluorescein-labeled Bak BH3 peptide; ND = not detected
[4] = target: T2, Mcl-1 (Mus musculus, UniProt P97287); assay: Multifragment KTGS screen against Mcl-1 (5 TA x 38 SZ per well), LC-MS/MS; details: multifragment KTGS, 190 combinations per well, 10 μM Mcl-1, 20 μM each fragment, pH 7.4, 37 °C, 10 h; peak area with protein / without protein
[5] = target: T2, Mcl-1; assay: Binary KTGS incubation (1 TA x 1 SZ) with Mcl-1, LC-MS/MS; details: binary incubation mixtures with and without Mcl-1
[6] = target: T1, GST-Bcl-XL; design: method as in PMID 21892513; details: 50 μM; ref 15b; cited from earlier work
[7] = FP, GST-Mcl-1 and fluorescein-labeled Bim BH3 peptide, read-out: IC50 on Mcl-1

Sequence of GST-tagged mouse Mcl-1-(152–309) (P97287 152-309): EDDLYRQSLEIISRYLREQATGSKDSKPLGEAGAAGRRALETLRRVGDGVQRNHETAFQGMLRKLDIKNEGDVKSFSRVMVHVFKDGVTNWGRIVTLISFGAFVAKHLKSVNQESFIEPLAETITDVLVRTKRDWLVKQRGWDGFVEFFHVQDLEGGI
T2 sequence (P97287 whole entry, the tested form may be a part): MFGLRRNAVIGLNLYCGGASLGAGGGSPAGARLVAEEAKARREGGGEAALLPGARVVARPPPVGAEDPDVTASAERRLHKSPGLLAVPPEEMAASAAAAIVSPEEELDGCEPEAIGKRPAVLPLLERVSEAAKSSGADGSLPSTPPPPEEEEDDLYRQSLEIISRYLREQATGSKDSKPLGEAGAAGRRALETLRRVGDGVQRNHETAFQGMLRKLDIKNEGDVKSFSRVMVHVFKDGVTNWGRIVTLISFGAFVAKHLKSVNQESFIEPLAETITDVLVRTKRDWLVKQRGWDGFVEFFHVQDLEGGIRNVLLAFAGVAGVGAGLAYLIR
T1 sequence (Q07817 whole entry, the tested form may be a part): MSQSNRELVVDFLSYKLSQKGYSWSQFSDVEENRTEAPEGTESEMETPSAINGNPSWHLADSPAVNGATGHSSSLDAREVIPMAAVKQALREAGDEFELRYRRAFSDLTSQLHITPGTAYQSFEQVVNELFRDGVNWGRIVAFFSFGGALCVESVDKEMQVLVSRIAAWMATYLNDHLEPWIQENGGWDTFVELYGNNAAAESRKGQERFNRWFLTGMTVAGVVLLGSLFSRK
Sequence of Bcl-XL (Q07817 whole entry, species assumed, the tested form may be a part): as the sequence (Q07817 whole entry, the tested form may be a part) above

Amplification coefficient [1] | IC50 [2, 7] | selectivity index ([2]; quotient of the IC50 toward Bcl-XL over the IC50 toward Mcl-1) | IC50 on Bcl-XL [3] | SMILES | inhibition at 50 µM ([2]; FP) [%] | IC50 [3] | Amplification coefficient 5TA x 38SZ [4] | Amplification coefficient 1TA x 1SZ [5] | inhibition of the Bcl-XL/Bak BH3 interaction [6] [%] | IC50 ([2]; IC50 on Mcl-1) [µM] | selectivity index [2]
15.0 |  |  |  | CC1(C)CCN(c2ccc(C(=O)NS(=O)(=O)c3ccc(NCCSc4ccccc4)c([N+](=O)[O-])c3)cc2)CC1 [SZ4TA2, reference compound] |  |  |  |  |  |  | 
 | 61 µM and 60.6 µM | 0.03 |  | O=C(NS(=O)(=O)c1ccc(NCCSc2ccccc2)c([N+](=O)[O-])c1)c1ccc(CCc2ccccn2)cc1 [SZ4TA17, O=C(NS(C1=CC=C(NCCSC2=CC=CC=C2)C([N+]([O-])=O)=C1)(=O)=O)C3=CC=C(CCC4=NC=CC=C4)C=C3] | 44.7 | 2.1 µM and 2.08 µM | 8 | 10 |  |  | 
 | 26.1 µM |  |  | O=C(NS(=O)(=O)c1ccc(NCCSc2ccccc2)c([N+](=O)[O-])c1)c1ccc2c(ccn2Cc2ccc(C(F)(F)F)cc2C(F)(F)F)c1 [SZ4TA30, O=C(NS(C1=CC=C(NCCSC2=CC=CC=C2)C([N+]([O-])=O)=C1)(=O)=O)C3=CC(C=CN4CC5=CC=C(C(F)(F)F)C=C5C(F)(F)F)=C4C=C3] | 80.7 | > 50 µM | 20 | 4 |  |  | 
15.2 |  |  |  | CC1(C)CCN(c2ccc(C(=O)NS(=O)(=O)c3ccc4ccc(S(=O)(=O)NCCSc5ccccc5)cc4c3)cc2)CC1 [SZ7TA2] |  |  |  |  |  |  | 
7.6 | 8.1 µM |  |  | COc1cc(OC)cc(C(=O)NS(=O)(=O)c2ccc(CN(CCSc3ccccc3)Cc3ccc(S(=O)(=O)N=[N+]=[N-])cc3)cc2)c1 [SZ9TA5, O=C(NS(C1=CC=C(CN(CC2=CC=C(S(=O)(N=[N+]=[N-])=O)C=C2)CCSC3=CC=CC=C3)C=C1)(=O)=O)C4=CC(OC)=CC(OC)=C4] | 99 |  | 8 | 4.5 |  |  | 
 | 13.6 µM |  | below the detectable threshold | O=C(NS(=O)(=O)c1ccc(CNc2cccc([N+](=O)[O-])c2)cc1)c1ccc(CN2C(=O)C(c3ccc(F)cc3F)=C(c3ccc(F)cc3F)C2=O)cc1 [SZ12TA42, O=C(NS(C1=CC=C(CNC2=CC=CC([N+]([O-])=O)=C2)C=C1)(=O)=O)C3=CC=C(CN4C(C(C5=C(F)C=C(F)C=C5)=C(C6=CC=C(F)C=C6F)C4=O)=O)C=C3] | 89.4 |  | 9 | 6 |  |  | 
 |  |  |  | O=C(NS(=O)(=O)c1ccc(CN(CCSc2ccccc2)Cc2c(F)cccc2Cl)cc1)c1ccccc1 [SZ15TA1, O=C(NS(C1=CC=C(CN(CCSC2=CC=CC=C2)CC3=C(F)C=CC=C3Cl)C=C1)(=O)=O)C4=CC=CC=C4] | 92.5 | 29.1 µM | 13 | 5 |  | 9.7 | 
 |  |  |  | Cc1nc(-c2ccccc2)sc1C(=O)NS(=O)(=O)c1ccc(CN(CCSc2ccccc2)Cc2c(F)cccc2Cl)cc1 [SZ15TA3, O=C(NS(C1=CC=C(CN(CCSC2=CC=CC=C2)CC3=C(F)C=CC=C3Cl)C=C1)(=O)=O)C4=C(C)N=C(C5=CC=CC=C5)S4] | 95.9 | 36.4 µM | 10 | 5 |  | 5.8 | 
 |  |  |  | COc1cc(OC)cc(C(=O)NS(=O)(=O)c2ccc(CN(CCSc3ccccc3)Cc3c(F)cccc3Cl)cc2)c1 [SZ15TA5, O=C(NS(C1=CC=C(CN(CCSC2=CC=CC=C2)CC3=C(F)C=CC=C3Cl)C=C1)(=O)=O)C4=CC(OC)=CC(OC)=C4] | > 99 | 53 µM | 9 | 4 |  | 13.4 | 4.0
 |  |  |  | O=C(NS(=O)(=O)c1ccc(CN(CCSc2ccccc2)Cc2c(F)cccc2Cl)cc1)c1ccc(OC(F)(F)F)cc1 [SZ15TA8, O=C(NS(C1=CC=C(CN(CCSC2=CC=CC=C2)CC3=C(F)C=CC=C3Cl)C=C1)(=O)=O)C4=CC=C(OC(F)(F)F)C=C4] | 96.5 | 47 µM | 7 | 6 |  | 7.6 | 6.2
 |  |  |  | O=C(NS(=O)(=O)c1ccc(CN(CCSc2ccccc2)Cc2c(F)cccc2Cl)cc1)c1ccc(CCc2ccccn2)cc1 [SZ15TA17, O=C(NS(C1=CC=C(CN(CCSC2=CC=CC=C2)CC3=C(F)C=CC=C3Cl)C=C1)(=O)=O)C4=CC=C(CCC5=NC=CC=C5)C=C4] | 89.5 | 55.9 µM | 7 | 7 |  | 20.2 | 
 |  |  |  | O=C(NS(=O)(=O)c1ccc(CN(CCSc2ccccc2)Cc2c(F)cccc2Cl)cc1)c1ccc(-c2ccccn2)cc1 [SZ15TA25, O=C(NS(C1=CC=C(CN(CCSC2=CC=CC=C2)CC3=C(F)C=CC=C3Cl)C=C1)(=O)=O)C4=CC=C(C5=NC=CC=C5)C=C4] | 89 | 54.9 µM | 15 | 4.5 |  | 15.3 | 
 | 14 µM |  | below the detectable threshold | O=C(Cn1c2ccccc2c2ccccc21)NS(=O)(=O)c1ccc(CN(CCSc2ccccc2)Cc2ccc3c(c2)OCO3)cc1 [SZ31TA15, O=C(NS(C1=CC=C(CN(CC2=CC(OCO3)=C3C=C2)CCSC4=CC=CC=C4)C=C1)(=O)=O)CN5C(C=CC=C6)=C6C7=C5C=CC=C7] | 80.7 |  | 72 | 6 |  |  | 
 | 20 µM |  | below the detectable threshold | COc1ccc(Cc2ccc(C(=O)NS(=O)(=O)c3ccc(CN(CCSc4ccccc4)Cc4ccc5c(c4)OCO5)cc3)cc2)c(OC)c1OC [SZ31TA24, O=C(NS(C1=CC=C(CN(CC2=CC(OCO3)=C3C=C2)CCSC4=CC=CC=C4)C=C1)(=O)=O)C5=CC=C(CC6=C(OC)C(OC)=C(OC)C=C6)C=C5] | 82.4 |  | 7 | 15 |  |  | 

SMILES | Amplification coefficient [1] | IC50 [2, 7] | selectivity index ([2]; quotient of the IC50 toward Bcl-XL over the IC50 toward Mcl-1) | IC50 on Bcl-XL [3] | inhibition at 50 µM ([2]; FP) [%] | IC50 [3] | Amplification coefficient 5TA x 38SZ [4] | Amplification coefficient 1TA x 1SZ [5] | inhibition of the Bcl-XL/Bak BH3 interaction [6] [%] | IC50 ([2]; IC50 on Mcl-1) [µM] | selectivity index [2]
[N-]=[N+]=NS(=O)(=O)c1ccc(CN(CCSc2ccccc2)Cc2ccc(S(=O)(=O)NC(=O)c3ccccc3)cc2)cc1 [SZ9TA1, O=C(NS(C1=CC=C(CN(CC2=CC=C(S(=O)(N=[N+]=[N-])=O)C=C2)CCSC3=CC=CC=C3)C=C1)(=O)=O)C4=CC=CC=C4] | 7.3 | 19.8 µM |  |  | 97.3 | 28.8 µM | 14 | 4 |  |  | 
[N-]=[N+]=NS(=O)(=O)c1ccc(CN(CCSc2ccccc2)Cc2ccc(S(=O)(=O)NC(=O)c3cccc4ccccc34)cc2)cc1 [SZ9TA7, O=C(NS(C1=CC=C(CN(CC2=CC=C(S(=O)(N=[N+]=[N-])=O)C=C2)CCSC3=CC=CC=C3)C=C1)(=O)=O)C4=C(C=CC=C5)C5=CC=C4] | 7.1 | 8.2 µM |  |  | 94.1 | 66.3 µM | 23 | 6 | 45 |  | 
COc1cccc(CN(CCSc2ccccc2)Cc2ccc(S(=O)(=O)NC(=O)c3sc(-c4ccccc4)nc3C)cc2)c1 [SZ17TA3, O=C(NS(C1=CC=C(CN(CC2=CC(OC)=CC=C2)CCSC3=CC=CC=C3)C=C1)(=O)=O)C4=C(C)N=C(C5=CC=CC=C5)S4] |  | 8.6 µM |  |  | > 99 | 50 µM | 25 | 12 |  |  | 
COc1cccc(CN(CCSc2ccccc2)Cc2ccc(S(=O)(=O)NC(=O)c3cccc4ccccc34)cc2)c1 [SZ17TA7, O=C(NS(C1=CC=C(CN(CC2=CC(OC)=CC=C2)CCSC3=CC=CC=C3)C=C1)(=O)=O)C4=C(C=CC=C5)C5=CC=C4] |  | 20.1 µM |  |  | 87.3 | 72 µM | 10 | 12 |  |  | 
Cc1noc(C)c1-c1ccc(S(=O)(=O)NC(=O)c2ccc(CN3C(=O)C(c4ccc(F)cc4F)=C(c4ccc(F)cc4F)C3=O)cc2)cc1 [SZ32TA42, O=C(NS(C1=CC=C(C2=C(C)ON=C2C)C=C1)(=O)=O)C3=CC=C(CN4C(C(C5=C(F)C=C(F)C=C5)=C(C6=CC=C(F)C=C6F)C4=O)=O)C=C3] |  | 19.1 µM |  |  | 91 | 43.8 µM | 10 | 6 |  |  | 
